According to PubChem BioAssay (NCI):
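Growth conditions: 96-well plates. Treatment: test compound, 48 hours, 5 concentrations. Analysis: linear interpolation between bracketing concentrations; unreached endpoints set to highest concentration. TGI: total growth inhibition.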

Experiments:
Assay in all cases: NCI-60 cell line screen, 48 h
[1] = test system: NCI-H226 lung
[2] = test system: UACC-62 melanoma
[3] = test system: RXF 393 renal
[4] = test system: ACHN renal
[5] = test system: SF-268 CNS
[6] = test system: SK-MEL-5 melanoma
[7] = test system: SNB-75 CNS
[8] = test system: LOX IMVI melanoma
[9] = test system: MALME-3M melanoma
[10] = test system: CCRF-CEM leukemia
[11] = test system: HS 578T breast
[12] = test system: CAKI-1 renal
[13] = test system: PC-3 prostate
[14] = test system: M14 melanoma
[15] = test system: SN12C renal
[16] = test system: OVCAR-5 ovarian
[17] = test system: OVCAR-8 ovarian
[18] = test system: MDA-N
[19] = test system: SF-295 CNS
[20] = test system: K-562 leukemia
[21] = test system: DU-145 prostate
[22] = test system: UACC-257 melanoma
[23] = test system: OVCAR-3 ovarian
[24] = test system: NCI-H460 lung
[25] = test system: TK-10 renal
[26] = test system: NCI-H23 lung
[27] = test system: HCT-15 colon
[28] = test system: A549 NSCLC
[29] = test system: SK-OV-3 ovarian
[30] = test system: NCI-H522 lung
[31] = test system: RPMI-8226 leukemia
[32] = test system: SW-620 colon
[33] = test system: SNB-19 CNS
[34] = test system: IGROV1 ovarian
[35] = test system: KM12 colon
[36] = test system: SK-MEL-2 melanoma
[37] = test system: MDA-MB-435
[38] = test system: SK-MEL-28 melanoma
[39] = test system: HCT-116 colon
[40] = test system: MDA-MB-231 breast
[41] = test system: HOP-62 NSCLC
[42] = test system: U251 CNS
[43] = test system: HT29 colon
[44] = test system: HCC-2998 colon
[45] = test system: MCF7 breast
[46] = test system: T-47D breast
[47] = test system: EKVX NSCLC
[48] = test system: 786-0 renal
[49] = test system: NCI/ADR-RES ovarian
[50] = test system: OVCAR-4 ovarian
[51] = test system: COLO 205 colon
[52] = test system: A498 renal
[53] = test system: SF-539 CNS
[54] = test system: HL-60(TB) leukemia
[55] = test system: HOP-92 NSCLC
[56] = test system: MOLT-4 leukemia
[57] = test system: SR leukemia
[58] = test system: UO-31 renal

Nc1nc(N)c2nc(CNc3ccc(C(=O)NC(CCC(=O)O)C(=O)O)cc3F)cnc2n1 (centres undefined)
TGI [1]: > 100 µM
TGI [2]: > 100 µM
TGI [3]: > 100 µM
TGI [4]: > 100 µM
TGI [5]: > 100 µM
TGI [6]: > 100 µM
TGI [7]: > 100 µM
TGI [8]: > 100 µM
TGI [9]: > 100 µM
TGI [10]: > 100 µM
TGI [11]: > 100 µM
TGI [12]: > 100 µM
TGI [13]: > 100 µM
TGI [14]: > 100 µM
TGI [15]: > 100 µM
TGI [16]: > 100 µM
TGI [17]: > 100 µM
TGI [18]: > 100 µM
TGI [19]: > 100 µM
TGI [20]: > 76.7 µM
TGI [21]: > 100 µM
TGI [22]: > 100 µM
TGI [23]: > 100 µM
TGI [24]: > 100 µM
TGI [25]: > 100 µM
TGI [26]: > 100 µM
TGI [27]: > 100 µM
TGI [28]: > 100 µM
TGI [29]: > 100 µM
TGI [30]: > 100 µM
TGI [31]: 67.2 µM
TGI [32]: > 100 µM
TGI [33]: > 100 µM
TGI [34]: > 100 µM
TGI [35]: > 100 µM
TGI [36]: > 100 µM
TGI [37]: > 100 µM
TGI [38]: > 100 µM
TGI [39]: > 100 µM
TGI [40]: > 100 µM
TGI [41]: > 100 µM
TGI [42]: > 100 µM
TGI [43]: > 100 µM
TGI [44]: > 100 µM
TGI [45]: > 100 µM
TGI [46]: > 100 µM
TGI [47]: > 100 µM
TGI [48]: > 100 µM
TGI [49]: > 100 µM
TGI [50]: > 100 µM
TGI [51]: > 100 µM

Cc1nc2ccc(Cl)cc2c(Cl)c1CCCl
TGI [1]: > 100 µM
TGI [2]: > 100 µM
TGI [3]: > 100 µM
TGI [4]: > 100 µM
TGI [52]: > 100 µM
TGI [5]: > 100 µM
TGI [6]: > 100 µM
TGI [7]: > 100 µM
TGI [8]: > 100 µM
TGI [9]: > 100 µM
TGI [53]: > 100 µM
TGI [10]: > 100 µM
TGI [11]: > 100 µM
TGI [12]: > 100 µM
TGI [13]: > 100 µM
TGI [14]: > 100 µM
TGI [15]: > 100 µM
TGI [16]: > 100 µM
TGI [17]: > 100 µM
TGI [18]: 40.9 µM
TGI [19]: > 100 µM
TGI [54]: > 100 µM
TGI [55]: 94.2 µM
TGI [20]: > 100 µM
TGI [21]: > 100 µM
TGI [22]: > 100 µM
TGI [23]: > 100 µM
TGI [56]: > 100 µM
TGI [24]: > 100 µM
TGI [25]: > 100 µM
TGI [26]: > 100 µM
TGI [27]: > 100 µM
TGI [28]: > 100 µM
TGI [29]: > 100 µM
TGI [30]: > 100 µM
TGI [31]: > 100 µM
TGI [32]: > 100 µM
TGI [33]: > 100 µM
TGI [34]: > 100 µM
TGI [35]: > 100 µM
TGI [36]: > 100 µM
TGI [57]: > 100 µM
TGI [37]: 31.2 µM
TGI [38]: > 100 µM
TGI [39]: > 100 µM
TGI [40]: > 100 µM
TGI [41]: > 100 µM
TGI [42]: > 100 µM
TGI [43]: > 100 µM
TGI [44]: > 100 µM
TGI [45]: 99.2 µM
TGI [58]: > 100 µM
TGI [47]: > 100 µM
TGI [48]: > 100 µM
TGI [49]: > 100 µM
TGI [51]: > 100 µM

Oc1ccc[n+](Cc2ccccc2)c1
TGI [1]: > 100 µM
TGI [2]: > 100 µM
TGI [3]: > 100 µM
TGI [4]: > 100 µM
TGI [52]: > 100 µM
TGI [5]: > 100 µM
TGI [6]: > 100 µM
TGI [7]: > 100 µM
TGI [8]: > 100 µM
TGI [9]: > 100 µM
TGI [53]: > 100 µM
TGI [10]: > 100 µM
TGI [11]: > 100 µM
TGI [12]: > 100 µM
TGI [13]: > 100 µM
TGI [14]: > 100 µM
TGI [15]: > 100 µM
TGI [16]: > 100 µM
TGI [17]: > 100 µM
TGI [18]: > 100 µM
TGI [19]: > 100 µM
TGI [54]: > 100 µM
TGI [20]: > 100 µM
TGI [21]: > 100 µM
TGI [22]: > 100 µM
TGI [23]: > 100 µM
TGI [56]: > 100 µM
TGI [24]: > 100 µM
TGI [25]: > 100 µM
TGI [26]: > 100 µM
TGI [27]: > 100 µM
TGI [28]: > 100 µM
TGI [29]: > 100 µM
TGI [30]: > 100 µM
TGI [31]: > 100 µM
TGI [33]: > 100 µM
TGI [35]: > 100 µM
TGI [36]: > 100 µM
TGI [37]: > 100 µM
TGI [38]: > 100 µM
TGI [39]: > 100 µM
TGI [40]: > 100 µM
TGI [41]: > 100 µM
TGI [42]: > 100 µM
TGI [43]: > 100 µM
TGI [44]: > 100 µM
TGI [45]: > 100 µM
TGI [46]: > 100 µM
TGI [58]: > 100 µM
TGI [48]: > 100 µM
TGI [49]: > 100 µM
TGI [51]: > 100 µM
